Reference: the supplement of paper PMC4862054

What was measured:
Assay in all cases: normalised response (% of control), CellTiter-Glo; higher = more viable cells (100 = DMSO, 0 = benzethonium chloride kill control)
Conditions in all cases: incubation time: 72 h
CAL-120 = tested on: CAL-120
How it was run: (§1)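 Normalised signals at single concentrations make up the values. They come from breast cancer cell lines seeded (20 µl suspension) into 384-well plates with compound at 5 concentrations in 10-fold steps over a compound-specific 10,000-fold range, incubated 72 h, and read for CellTox Green fluorescence then CellTiter-Glo luminescence. Each plate was normalised to 0.1 % DMSO (100) and a positive kill control (0).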

SK-BR-3 = tested on: SK-BR-3
How it was run: as §1

CAL-85-1 = tested on: CAL-85-1
How it was run: as §1

MFM-223 = tested on: MFM-223
How it was run: as §1

MDA-MB-468 = tested on: MDA-MB-468
How it was run: as §1

HDQ-P1 = tested on: HDQ-P1
How it was run: as §1

HCC1143 = tested on: HCC1143
How it was run: as §1

BT-549 = tested on: BT-549
How it was run: as §1

BT-474 = tested on: BT-474
How it was run: as §1

MCF-10A = tested on: MCF-10A
How it was run: as §1

MDA-MB-453 = tested on: MDA-MB-453
How it was run: as §1

CAL-148 = tested on: CAL-148
How it was run: as §1

HCC1599 = tested on: HCC1599
How it was run: as §1

CAL-51 = tested on: CAL-51
How it was run: as §1

HCC1937 = tested on: HCC1937
How it was run: as §1

Hs578T = tested on: Hs578T
How it was run: as §1

MDA-MB-436 = tested on: MDA-MB-436
How it was run: as §1

MDA-MB-231 = tested on: MDA-MB-231
How it was run: as §1

DU-4475 = tested on: DU-4475
How it was run: as §1

Compound	normalised response (CAL-120)	normalised response (SK-BR-3)	normalised response (CAL-85-1)	normalised response (MFM-223)	normalised response (MDA-MB-468)	normalised response (HDQ-P1)	normalised response (HCC1143)	normalised response (BT-549)	normalised response (BT-474)	normalised response (MCF-10A)	normalised response (MDA-MB-453)	normalised response (CAL-148)	normalised response (HCC1599)	normalised response (CAL-51)	normalised response (HCC1937)	normalised response (Hs578T)	normalised response (MDA-MB-436)	normalised response (MDA-MB-231)	normalised response (DU-4475)
CN1CC[C@H](c2c(O)cc(O)c3c(=O)cc(-c4ccccc4Cl)oc23)[C@H](O)C1 [Alvocidib] (1000 nM)	35.2%	2.44%	8.63%	14%	8.32%	19.8%	17.1%	5.76%	20%	11.2%	28%	26.1%	17.2%	9.5%	29.1%	10.1%	14.2%	3.01%	10.1%
Nc1nc(Cl)nc2c1ncn2[C@H]1C[C@H](O)[C@@H](CO)O1 [Cladribine] (100 nM)	94.5%	111%	104%	101%	93.8%	97.5%	100%	77.7%	97.1%	107%	106%	97.8%	112%	90.1%	90.3%	100%	104%	93.3%	101%
Nc1ccn([C@@H]2O[C@H](CO)[C@@H](O)[C@@H]2O)c(=O)n1 [Cytarabine] (1000 nM)	88%	46.7%	94.5%	101%	74.3%	92%	80.6%	61.9%	90.6%	104%	105%	55.5%	93.4%	39.7%	85.2%	81.6%	46.4%	86.8%	77.8%
Cc1c2oc3c(C)ccc(C(=O)N[C@@H]4C(=O)N[C@H](C(C)C)C(=O)N5CCC[C@H]5C(=O)N(C)CC(=O)N(C)[C@@H](C(C)C)C(=O)O[C@@H]4C)c3nc-2c(C(=O)N[C@@H]2C(=O)N[C@H](C(C)C)C(=O)N3CCC[C@H]3C(=O)N(C)CC(=O)N(C)[C@@H](C(C)C)C(=O)O[C@@H]2C)c(N)c1=O [Dactinomycin] (100 nM)	19.8%	11.3%	6.91%	26.6%	3.22%	21.8%	8.6%	6.05%	6.79%	5.33%	6.8%	2.05%	8.92%	2.69%	18.9%	7.79%	17%	2.57%	0.24%
COc1cccc2c1C(=O)c1c(O)c3c(c(O)c1C2=O)C[C@@](O)(C(=O)CO)C[C@@H]3O[C@H]1C[C@H](N)[C@H](O)[C@H](C)O1 [Doxorubicin] (100 nM)	98.6%	92.2%	103%	115%	71.4%	98.7%	105%	78.3%	82.9%	106%	117%	82.7%	115%	39%	107%	98.7%	85.4%	95.9%	80.7%
Cc1ccc(F)c(NC(=O)Nc2ccc(-c3cccc4[nH]nc(N)c34)cc2)c1 [Linifanib] (100 nM)	114%	112%	100%	110%	104%	103%	105%	103%	106%	105%	112%	109%	104%	75.2%	102%	98%	112%	111%	98.7%
S=c1[nH]cnc2nc[nH]c12 [Mercaptopurine] (1000 nM)	88.8%	95.2%	92.6%	93.7%	91.8%	47.7%	95.3%	103%	75.6%	94.2%	98.6%	85%	80.5%	108%	59.4%	71.8%	88.7%	66.6%	79.7%
Clc1ccc(C(c2ccccc2Cl)C(Cl)Cl)cc1 (centres undefined) [Mitotane] (1000 nM)	97.7%	94.2%	101%	97.4%	98.7%	101%	94.1%	100%	92%	91.7%	92.5%	95.7%	121%	98.3%	99.6%	104%	98.2%	101%	95.3%
COc1cccc2cc(-c3nc([C@H]4CC[C@H](C(=O)O)CC4)n4ncnc(N)c34)[nH]c12 [OSI-027] (1000 nM)	77.3%	48.2%	76.2%	72.5%	84.2%	66.1%	90.8%	74.6%	79.6%	87%	71.2%	93.1%	118%	92.4%	81.2%	96.6%	80.2%	85.5%	89.3%
OC[C@H]1O[C@@H](n2cnc3c2N=CNC[C@H]3O)C[C@@H]1O [Pentostatin] (1000 nM)	95.6%	104%	100%	103%	99.4%	94.1%	104%	95.7%	93.9%	105%	97.8%	94.4%	103%	92.4%	100%	105%	102%	108%	98%
N#CC[C@H](C1CCCC1)n1cc(-c2ncnc3[nH]ccc23)cn1 [Ruxolitinib] (1000 nM)	89.4%	90.2%	95.8%	91%	90.8%	98.2%	92.9%	96.3%	90.2%	80.6%	84.3%	99.9%	100%	121%	103%	105%	101%	104%	99.6%
C=CC[C@@H]1/C=C(\C)C[C@H](C)C[C@H](OC)[C@H]2O[C@@](O)(C(=O)C(=O)N3CCCC[C@H]3C(=O)O[C@H](/C(C)=C/[C@@H]3CC[C@@H](O)[C@H](OC)C3)[C@H](C)[C@@H](O)CC1=O)[C@H](C)C[C@@H]2OC [Tacrolimus] (1000 nM)	101%	88.5%	95.1%	101%	105%	105%	98.4%	102%	97.4%	102%	108%	96.6%	121%	109%	101%	96%	99.7%	106%	100%
C=CCNC1=C2C[C@@H](C)C[C@H](OC)[C@H](O)[C@@H](C)/C=C(\C)[C@H](OC(N)=O)[C@@H](OC)/C=C\C=C(/C)C(=O)NC(=CC1=O)C2=O [Tanespimycin] (1000 nM)	51.8%	38.5%	27.9%	39.2%	42.3%	22.8%	36%	33.4%	21.1%	14.6%	28.9%	24.1%	57.8%	26%	29%	38.2%	43.3%	23.5%	0.04%
C[C@]1(c2nc3c(C(N)=O)cccc3[nH]2)CCCN1 [Veliparib] (1000 nM)	97%	101%	115%	107%	104%	102%	105%	103%	93.8%	91.3%	109%	96.2%	104%	72.6%	101%	105%	95.4%	103%	98.6%
CC[C@]1(O)C[C@@H]2CN(CCc3c([nH]c4ccccc34)[C@@](C(=O)OC)(c3cc4c(cc3OC)N(C)[C@H]3[C@@](O)(C(=O)OC)[C@H](OC(C)=O)[C@]5(CC)C=CCN6CC[C@]43[C@@H]65)C2)C1 [Vinblastine] (100 nM)	62.9%	14.2%	37.2%	44.1%	34.7%	71.9%	56.6%	35.6%	52.3%	72.4%	57.5%	42%	26.6%	31.6%	67.7%	22.4%	25.3%	40.1%	61.9%
CS(=O)(=O)c1ccc(C(=O)Nc2ccc(Cl)c(-c3ccccn3)c2)c(Cl)c1 [Vismodegib] (1000 nM)	90.9%	86.5%	103%	95.2%	94.9%	98.4%	89.2%	101%	90.3%	94.9%	89.6%	98.8%	118%	105%	95.5%	101%	93.3%	95.9%	98.9%
